Results as given in US20040214721A1 (priority 2001, published 2004).

| SMILES | melting point [°C] |
| --- | --- |
| CCC#CCOc1ccc([C@@H]2CCCC[C@H]2NC(=O)[C@@H](NS(=O)(=O)CC)C(C)C)cc1OC | 133 to 136 |
| CCC#CCOc1ccc([C@@H]2CCCC[C@H]2NC(=O)[C@@H](NS(=O)(=O)N(C)C)C(C)C)cc1OC | 158 to 160 |
| C#CCOc1ccc([C@@H]2CCCC[C@H]2NC(=O)[C@@H](NS(=O)(=O)CC)C(C)C)cc1OC | 149 to 151 |

Results, then the molecule that gave them:

| melting point [°C] | SMILES |
| --- | --- |
| 95 to 98 | CCOc1ccc(-c2ccccc2NC(=O)[C@@H](NS(C)(=O)=O)C(C)C)cc1OC |
| 68 to 70 | COc1ccc(-c2ccccc2NC(=O)[C@@H](NS(C)(=O)=O)C(C)C)cc1OC |
| 158 to 160 | COc1ccc(-c2ccccc2NC(=O)CNS(C)(=O)=O)cc1OC |
| 183 to 185 | C#CCOc1ccc([C@@H]2CCCC[C@H]2NC(=O)[C@@H](NS(C)(=O)=O)C(C)C)cc1OC |
| 166 to 168 | CCC#CCOc1ccc([C@@H]2CCCC[C@H]2NC(=O)[C@@H](NS(C)(=O)=O)C(C)C)cc1OC |
